The source made the active and inactive calls. No cut-off for these calls is given here.
Legend:
KP-4 [1] = experiment: Induction of apoptosis in human KP-4 cells at 10 uM incubated for 24 hrs in presence of 5 uM MRTX1133 by Annexin V-FITC/PI staining based flow cytometry analysis; assay type: functional, cell-based
ASPC1 [2] = experiment: Synergistic antiproliferative activity against human ASPC1 cells at 0 to 15 uM incubated for 72 hrs in presence of MRTX1133 by SRB assay; assay type: functional, cell-based; settings: dose 0-15 µM
[3] = molecular target: T1, Protein cereblon/Histone-lysine N-methyltransferase EHMT1 (Homo sapiens) (UniProt Q9H9B1+Q96SW2); experiment: PROTAC activity at CRBN/GLP in human PANC-1 cells assessed as downregulation of GLP protein level at 1 uM measured after 8 hrs by quantitative proteomics analysis; assay type: cell-based
Panc 02.03 = experiment: Synergistic antiproliferative activity against human Panc 02.03 cells assessed as combination index for ED90 upto 20 uM incubated for 72 hrs in presence of MRTX1133; assay type: functional
PANC-1 [4] = experiment: Induction of apoptosis in human PANC-1 cells measured after 24 hrs by Annexin V-FITC/PI staining based flow cytometry analysis; assay type: functional, cell-based; settings: dose 5-12.5 µM
KP-4 [5] = experiment: Antiproliferative activity against human KP-4 cells assessed as inhibition of cell growth measured after 72 hrs by SRB assay; assay type: functional, cell-based
[6] = molecular target: T2, Protein cereblon/Histone-lysine N-methyltransferase EHMT2 (Homo sapiens, UniProt Q96KQ7+Q96SW2); experiment: PROTAC activity at CRBN/G9a in human PANC-1 cells assessed as induction of G9a degradation at 1 uM measured after 8 to 24 hrs by Western blot analysis; assay type: cell-based; settings: time 8-24 hrs
Target sequence in this assay (Q96KQ7 2-1210 limits assumed): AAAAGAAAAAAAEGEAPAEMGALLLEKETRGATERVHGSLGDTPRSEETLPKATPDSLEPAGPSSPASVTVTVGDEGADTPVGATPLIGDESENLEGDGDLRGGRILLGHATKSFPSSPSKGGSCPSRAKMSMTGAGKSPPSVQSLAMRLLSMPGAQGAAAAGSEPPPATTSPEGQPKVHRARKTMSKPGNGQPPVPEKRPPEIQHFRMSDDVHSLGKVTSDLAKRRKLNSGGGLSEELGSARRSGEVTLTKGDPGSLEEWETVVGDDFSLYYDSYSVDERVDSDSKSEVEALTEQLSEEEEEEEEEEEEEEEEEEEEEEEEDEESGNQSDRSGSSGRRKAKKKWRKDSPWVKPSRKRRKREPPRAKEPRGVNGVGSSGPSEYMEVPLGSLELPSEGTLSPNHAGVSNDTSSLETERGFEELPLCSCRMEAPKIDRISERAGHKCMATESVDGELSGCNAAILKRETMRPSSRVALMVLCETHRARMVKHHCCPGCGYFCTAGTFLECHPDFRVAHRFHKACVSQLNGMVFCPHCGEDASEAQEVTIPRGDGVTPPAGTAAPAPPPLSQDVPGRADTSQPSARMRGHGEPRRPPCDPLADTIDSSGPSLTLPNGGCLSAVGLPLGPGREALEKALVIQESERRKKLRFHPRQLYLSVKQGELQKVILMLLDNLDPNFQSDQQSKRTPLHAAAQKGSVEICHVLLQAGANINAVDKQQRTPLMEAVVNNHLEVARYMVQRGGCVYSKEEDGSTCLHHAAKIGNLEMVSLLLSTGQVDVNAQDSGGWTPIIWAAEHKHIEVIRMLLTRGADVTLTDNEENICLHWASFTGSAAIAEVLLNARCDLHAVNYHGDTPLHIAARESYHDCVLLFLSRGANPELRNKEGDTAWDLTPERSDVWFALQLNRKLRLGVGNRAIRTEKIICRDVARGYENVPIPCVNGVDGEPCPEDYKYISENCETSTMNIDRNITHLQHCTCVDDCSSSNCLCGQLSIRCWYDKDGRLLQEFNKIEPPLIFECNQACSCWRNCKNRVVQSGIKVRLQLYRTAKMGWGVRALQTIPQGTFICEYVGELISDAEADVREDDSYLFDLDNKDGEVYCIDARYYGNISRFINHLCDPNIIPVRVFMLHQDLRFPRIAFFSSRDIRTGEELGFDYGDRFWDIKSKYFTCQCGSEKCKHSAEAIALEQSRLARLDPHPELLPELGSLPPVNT
Target sequence in this assay (Q96SW2 whole entry partner): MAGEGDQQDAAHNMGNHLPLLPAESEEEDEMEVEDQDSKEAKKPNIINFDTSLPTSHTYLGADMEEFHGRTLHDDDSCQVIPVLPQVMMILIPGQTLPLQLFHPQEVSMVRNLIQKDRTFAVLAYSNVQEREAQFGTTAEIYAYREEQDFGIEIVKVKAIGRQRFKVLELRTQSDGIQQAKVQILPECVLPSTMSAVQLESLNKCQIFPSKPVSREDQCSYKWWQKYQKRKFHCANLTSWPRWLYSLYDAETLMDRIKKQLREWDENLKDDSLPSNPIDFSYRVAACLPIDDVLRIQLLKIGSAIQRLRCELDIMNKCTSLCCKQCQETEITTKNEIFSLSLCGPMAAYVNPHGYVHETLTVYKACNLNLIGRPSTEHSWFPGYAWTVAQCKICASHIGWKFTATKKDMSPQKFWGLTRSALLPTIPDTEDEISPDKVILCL

[7] = AUC (0 to t) in male ICR mouse at 20 mg/kg, ip measured upto 24 hrs by LC-MS/MS analysis; assay type: ADME, organism-based; settings: in vivo
PANC-1 [8] = experiment: Effect on H3K27me2 level in human PANC-1 cells at 0.04 to 10 uM measured after 24 hrs by Western blot analysis; assay type: functional, cell-based; settings: dose 0.04-10 µM
Panc 05.04 = experiment: Antiproliferative activity against human Panc 05.04 cells assessed as inhibition of cell growth measured after 72 hrs by SRB assay; assay type: functional, cell-based
PANC-1 [9] = experiment: Effect on H3K4me3 level in human PANC-1 cells at 0.04 to 10 uM measured after 24 hrs by Western blot analysis; assay type: functional, cell-based; settings: dose 0.04-10 µM
PANC-1 [10] = experiment: Upregulation of cleaved PARP level in human PANC-1 cells at 0.1 to 10 uM measured after 24 hrs by Western blot analysis; assay type: functional, cell-based; settings: dose 0.1-10 µM
[11] = Cmax in male ICR mouse at 20 mg/kg, ip measured upto 24 hrs by LC-MS/MS analysis; assay type: ADME, organism-based; settings: in vivo
[12] = AUC (0 to t) in male ICR mouse at 5 mg/kg, iv measured upto 24 hrs by LC-MS/MS analysis; assay type: ADME, organism-based; settings: in vivo
KP-4 [13] = experiment: Synergistic antiproliferative activity against human KP-4 cells assessed as combination index upto 20 uM incubated for 72 hrs in presence of MRTX1133; assay type: functional
[14] = molecular target: T2, Protein cereblon/Histone-lysine N-methyltransferase EHMT2; experiment: PROTAC activity at CRBN/G9a in human PANC-1 cells assessed as induction of G9a degradation measured after 8 hrs by Western blot analysis; assay type: cell-based
PANC-1 [15] = experiment: Downregulation of H3K9me2 level in human PANC-1 cells measured after 24 hrs by Western blot analysis; assay type: functional, cell-based; settings: dose 0.04-10 µM
KP-4 [16] = experiment: Synergistic antiproliferative activity against human KP-4 cells at 0 to 10 uM incubated for 72 hrs in presence of MRTX1133 by SRB assay; assay type: functional, cell-based; settings: dose 0-10 µM
PANC-1 [17] = experiment: Effect on H3K79me3 level in human PANC-1 cells at 0.04 to 10 uM measured after 24 hrs by Western blot analysis; assay type: functional, cell-based; settings: dose 0.04-10 µM
[18] = molecular target: T2, Protein cereblon/Histone-lysine N-methyltransferase EHMT2; experiment: PROTAC activity at CRBN/G9a in human PANC-1 cells assessed as induction of G9a degradation at 0.1 uM measured after 24 hrs by Western blot analysis; assay type: cell-based
Target sequence in this assay (Q96KQ7 2-1210 limits assumed): as the sequence (Q96KQ7 2-1210 limits assumed) above
Target sequence in this assay (Q96SW2 whole entry partner): as the sequence (Q96SW2 whole entry partner) above

PANC-1 [19] = experiment: Effect on cell cycle arrest in human PANC-1 cells at 5 to 10 uM measured after 24 hrs by RNaseA/PI staining based flow cytometry analysis; assay type: functional; settings: dose 5-10 µM
[20] = molecular target: T2, Protein cereblon/Histone-lysine N-methyltransferase EHMT2; experiment: PROTAC activity at CRBN/G9a in human ASPC1 cells assessed as induction of G9a degradation measured after 8 hrs by Western blot analysis; assay type: cell-based
Target sequence in this assay (Q96KQ7 whole entry): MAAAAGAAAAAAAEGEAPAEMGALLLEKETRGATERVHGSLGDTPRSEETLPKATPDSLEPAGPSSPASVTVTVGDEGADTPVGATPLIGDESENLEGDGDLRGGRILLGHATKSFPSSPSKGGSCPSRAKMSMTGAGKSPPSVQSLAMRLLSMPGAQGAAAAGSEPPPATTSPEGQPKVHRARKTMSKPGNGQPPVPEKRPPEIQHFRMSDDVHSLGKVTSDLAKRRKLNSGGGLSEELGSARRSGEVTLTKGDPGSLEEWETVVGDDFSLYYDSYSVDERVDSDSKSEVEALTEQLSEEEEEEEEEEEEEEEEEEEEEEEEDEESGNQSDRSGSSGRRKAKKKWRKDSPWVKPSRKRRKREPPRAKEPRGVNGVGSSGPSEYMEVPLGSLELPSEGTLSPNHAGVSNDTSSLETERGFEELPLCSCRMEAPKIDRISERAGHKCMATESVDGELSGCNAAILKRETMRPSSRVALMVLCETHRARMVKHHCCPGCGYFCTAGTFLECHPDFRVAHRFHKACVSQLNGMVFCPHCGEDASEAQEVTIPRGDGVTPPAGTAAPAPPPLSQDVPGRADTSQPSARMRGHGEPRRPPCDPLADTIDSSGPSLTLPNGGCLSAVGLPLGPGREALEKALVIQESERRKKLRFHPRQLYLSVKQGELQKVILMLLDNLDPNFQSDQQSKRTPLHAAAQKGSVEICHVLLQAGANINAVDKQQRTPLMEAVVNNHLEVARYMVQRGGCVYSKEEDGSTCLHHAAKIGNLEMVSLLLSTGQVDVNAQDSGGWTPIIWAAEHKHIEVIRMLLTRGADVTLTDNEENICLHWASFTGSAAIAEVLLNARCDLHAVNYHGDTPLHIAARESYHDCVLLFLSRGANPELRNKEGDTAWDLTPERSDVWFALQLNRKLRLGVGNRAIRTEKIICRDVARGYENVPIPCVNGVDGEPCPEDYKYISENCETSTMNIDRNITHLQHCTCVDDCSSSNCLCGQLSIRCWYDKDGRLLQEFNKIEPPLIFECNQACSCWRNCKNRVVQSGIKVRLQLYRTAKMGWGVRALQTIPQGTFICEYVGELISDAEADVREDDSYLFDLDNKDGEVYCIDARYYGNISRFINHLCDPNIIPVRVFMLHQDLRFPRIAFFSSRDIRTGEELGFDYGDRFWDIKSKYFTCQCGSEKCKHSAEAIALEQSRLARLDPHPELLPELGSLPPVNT
Target sequence in this assay (Q96SW2 whole entry): as the sequence (Q96SW2 whole entry partner) above

PANC-1 [21] = experiment: Induction of apoptosis in human PANC-1 cells at 10 uM by Annexin V-FITC/PI staining based flow cytometry analysis; assay type: functional, cell-based; settings: time 12-72 hrs, TDE = time-dependent effect
ASPC1 [22] = experiment: Synergistic antiproliferative activity against human ASPC1 cells assessed as combination index for ED90 upto 20 uM incubated for 72 hrs in presence of MRTX1133; assay type: functional
[23] = molecular target: T2, Protein cereblon/Histone-lysine N-methyltransferase EHMT2; experiment: PROTAC activity at CRBN/G9a in human PANC-1 cells assessed as induction of G9a degradation at 1 uM pretreated with MLN4924 for 2 hrs followed by compound addition and measured after 8 hrs by Western blot analysis; assay type: cell-based
Target sequence in this assay (Q96KQ7 2-1210 limits assumed): as the sequence (Q96KQ7 2-1210 limits assumed) above
Target sequence in this assay (Q96SW2 whole entry partner): as the sequence (Q96SW2 whole entry partner) above

[24] = molecular target: T1, Protein cereblon/Histone-lysine N-methyltransferase EHMT1 (Homo sapiens); experiment: PROTAC activity at CRBN/GLP in human PANC-1 cells assessed as induction of GLP degradation at 1 uM measured after 8 to 24 hrs by Western blot analysis; assay type: cell-based; settings: time 8-24 hrs
[25] = Volume of distribution at steady state in male ICR mouse at 5 mg/kg, iv measured upto 24 hrs by LC-MS/MS analysis; assay type: ADME, organism-based; settings: in vivo, read-out: Vdss

T1 sequence (Q96SW2 whole entry, looked up): as the sequence (Q96SW2 whole entry partner) above
T1 sequence (Q9H9B1 whole entry, looked up): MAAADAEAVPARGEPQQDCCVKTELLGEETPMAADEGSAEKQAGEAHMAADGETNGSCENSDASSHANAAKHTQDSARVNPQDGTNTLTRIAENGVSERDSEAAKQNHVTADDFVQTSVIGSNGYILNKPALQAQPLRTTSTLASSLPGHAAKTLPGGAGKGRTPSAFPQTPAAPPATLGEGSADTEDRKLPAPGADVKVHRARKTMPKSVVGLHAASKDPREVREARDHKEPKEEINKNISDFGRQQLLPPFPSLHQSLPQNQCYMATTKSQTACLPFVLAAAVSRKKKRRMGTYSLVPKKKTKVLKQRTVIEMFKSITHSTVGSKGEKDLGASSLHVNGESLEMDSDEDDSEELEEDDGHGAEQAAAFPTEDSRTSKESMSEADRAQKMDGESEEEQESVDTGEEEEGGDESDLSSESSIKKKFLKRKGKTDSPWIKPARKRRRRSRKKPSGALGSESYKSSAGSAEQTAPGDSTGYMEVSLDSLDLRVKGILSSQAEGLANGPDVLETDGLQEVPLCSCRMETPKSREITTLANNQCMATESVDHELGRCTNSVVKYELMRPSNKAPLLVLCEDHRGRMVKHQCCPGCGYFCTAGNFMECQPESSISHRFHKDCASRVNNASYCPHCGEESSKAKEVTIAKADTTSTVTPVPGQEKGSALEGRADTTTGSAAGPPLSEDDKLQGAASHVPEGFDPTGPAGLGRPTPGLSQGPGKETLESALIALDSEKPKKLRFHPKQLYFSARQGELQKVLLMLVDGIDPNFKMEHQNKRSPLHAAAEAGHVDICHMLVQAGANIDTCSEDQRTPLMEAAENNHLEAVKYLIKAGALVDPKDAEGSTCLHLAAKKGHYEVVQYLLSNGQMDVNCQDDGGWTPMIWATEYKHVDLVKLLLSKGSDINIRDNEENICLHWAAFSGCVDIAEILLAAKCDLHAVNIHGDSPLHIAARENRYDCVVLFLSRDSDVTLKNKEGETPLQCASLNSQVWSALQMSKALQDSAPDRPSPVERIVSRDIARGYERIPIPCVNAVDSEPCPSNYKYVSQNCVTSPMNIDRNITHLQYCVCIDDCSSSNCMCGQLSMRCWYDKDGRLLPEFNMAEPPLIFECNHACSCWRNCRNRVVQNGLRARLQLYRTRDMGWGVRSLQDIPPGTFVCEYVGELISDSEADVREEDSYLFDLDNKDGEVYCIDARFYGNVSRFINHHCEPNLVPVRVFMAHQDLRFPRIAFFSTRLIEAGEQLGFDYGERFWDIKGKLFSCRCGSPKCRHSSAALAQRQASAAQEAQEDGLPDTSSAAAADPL

**Q.** Which Activity (KP-4 [1]) does the source give for COc1cc2c(NC3CCN(CCCC(=O)NCCCCCCCCNc4cccc5c4C(=O)N(C4CCC(=O)NC4=O)C5=O)CC3)nc(C3CCCCC3)nc2cc1OCCCN1CCCC1 (stereo not drawn) here?
**A.** Active

**Q.** What about the Activity (ASPC1 [2]) of the same molecule?
**A.** Active

**Q.** And the Activity [3]?
**A.** inactive

**Q.** And the CI (Panc 02.03)?
**A.** <0.4

**Q.** And the Activity (PANC-1 [4])?
**A.** Dose-Dependent Effect

**Q.** What about the Activity (KP-4 [5]) of the same molecule?
**A.** Active

**Q.** What about the Activity [6] of the same molecule?
**A.** Active

**Q.** What about the AUC(0-t) at 24 h [7] of the same molecule?
**A.** 6150 ng·h/mL

**Q.** What about the Activity (PANC-1 [8]) of the same molecule?
**A.** inactive

**Q.** And the Activity (Panc 05.04)?
**A.** Active

**Q.** What about the Activity (PANC-1 [9]) of the same molecule?
**A.** inactive

**Q.** What about the Activity (PANC-1 [10]) of the same molecule?
**A.** Active

**Q.** What about the Cmax [11] of the same molecule?
**A.** 2670 ng/mL

**Q.** And the AUC(0-t) at 24 h [12]?
**A.** 3780 ng·h/mL

**Q.** What about the CI (KP-4 [13]) of the same molecule?
**A.** <0.8

**Q.** What about the Activity [14] of the same molecule?
**A.** Dose-Dependent Effect

**Q.** And the DC50 [14]?
**A.** 100 nM

**Q.** What about the Activity (PANC-1 [15]) of the same molecule?
**A.** Active

**Q.** And the Activity (KP-4 [16])?
**A.** Active

**Q.** What about the Activity (PANC-1 [17]) of the same molecule?
**A.** inactive

**Q.** What about the Activity [18] of the same molecule?
**A.** Active

**Q.** What about the Activity (PANC-1 [19]) of the same molecule?
**A.** Active

**Q.** What about the DC50 [20] of the same molecule?
**A.** 200 nM

**Q.** What about the Activity (PANC-1 [21]) of the same molecule?
**A.** Tde

**Q.** And the CI (ASPC1 [22])?
**A.** <0.4

**Q.** What about the Activity [23] of the same molecule?
**A.** inactive

**Q.** What about the Activity [24] of the same molecule?
**A.** inactive

**Q.** And the Vd [25]?
**A.** 2.61 L/kg

From ChEMBL document CHEMBL5523762, “Discovery of Potent and Selective G9a Degraders for the Treatment of Pancreatic Cancer” (J Med Chem, 2024)
